Experiment: xn = mol fraction of the nth substance listed
Details: 101 kPa

CC(O)C(=O)[O-].[NH3+]CCO (stereo not given) + CCO
speed of sound [m/s]
Details	x2 = 0.0543	x2 = 0.1051	x2 = 0.206	x2 = 0.3151	x2 = 0.4144	x2 = 0.5122	x2 = 0.6116	x2 = 0.7232	x2 = 0.8109	x2 = 0.9528
288.15 K	–	1848	1792.9	1727.2	–	1590.8	1514	–	1349.2	–
290.65 K	1863.7	1839.9	–	1720.3	1654.4	1586.3	1507.4	1416	1342	1219.2
293.15 K	1855.8	1832.1	1779	1713.6	–	–	1500.8	1409.1	1334.8	1211.3
295.65 K	1848.3	1824.7	1772.2	1707	1640.9	1573.7	1494	1402.2	1327.5	1203.3
298.15 K	–	–	1765.7	1700.7	1634.4	–	1487.3	1395.3	1320.3	1195.4
300.65 K	–	–	1765.7	1700.7	1634.4	1567.3	1487.3	1395.3	–	–
303.15 K	1828	1804.4	–	–	1621.5	1555	1474.1	–	1305.9	1179.5
305.65 K	1821.7	1798.1	1747.1	1682.1	–	–	1467.5	1374.7	1298.8	1171.5
308.15 K	–	1791.9	1741.1	1676	1608.8	1542.7	1461	1367.9	1291.6	1163.6
310.65 K	1809.5	1785.8	1735.2	1670	1602.6	1536.5	1454.5	–	1284.4	–
313.15 K	–	1779.7	1729.3	1664	1596.3	1530.3	1448	1354.3	1277.3	1147.8
315.65 K	–	1773.7	1723.4	1658	1590.1	1524.2	1441.5	1347.5	1270.2	–
318.15 K	–	1767.8	1717.5	–	1583.9	1518.1	1435	1340.8	1263.1	1132.2
320.65 K	1786.1	1762	1711.8	1646	–	1511.9	1428.6	–	1256.1	1124.5
323.15 K	1780.3	1756.1	1706	1640.2	1571.5	1505.7	1422.2	1327.3	1249	–

CC(O)C(=O)[O-].[NH3+]CCO (stereo not given) + CO
speed of sound [m/s]
Details	x2 = 0.0675	x2 = 0.1469	x2 = 0.2586	x2 = 0.3811	x2 = 0.4275	x2 = 0.518	x2 = 0.6083	x2 = 0.7069	x2 = 0.7972	x2 = 0.8985
288.15 K	1875.8	–	1802.2	1745.7	1721.2	1666.4	1603.6	1522	–	1301.9
290.65 K	1867.4	1839.5	1795.1	–	1715	1660	1597.9	1515.5	1422	1294.8
293.15 K	–	1831.9	1788.4	–	–	1653.7	1592	1509	1415.5	1287.8
295.65 K	1852.2	1824.6	–	1727.1	–	–	1586.1	–	1409	–
298.15 K	1845.1	1817.8	1775.2	–	1697	1641.3	1580.2	–	1402.4	–
300.65 K	1838.4	1811.2	1768.8	1715.2	1690.9	–	1574.2	1489.5	1395.8	1266.1
303.15 K	1831.9	1804.9	1762.6	1709.4	1685	–	–	1483	1389.3	1258.9
305.65 K	1825.7	1798.8	1756.6	1703.5	1679	1623.2	1562.1	1476.6	1382.8	1251.8
308.15 K	1819.6	1792.9	1750.5	1697.6	1673	1617.2	1556	–	1376.2	1244.6
310.65 K	1813.6	1787	1744.5	1691.7	1667.1	1611.2	1549.9	1463.8	1369.7	1237.5
313.15 K	1807.7	1781.1	–	1685.9	1661.1	1605.2	–	1457.3	–	–
315.65 K	1801.9	1775.2	1732.6	1680	–	1599.1	1537.6	1451	1356.6	1223.2
318.15 K	1796.2	–	1726.7	1674.2	1649.2	1593.1	1531.4	1444.5	–	1216.1
320.65 K	1790.5	1763.7	1720.8	1668.4	1643.4	1587.1	1525.2	1438.2	1343.6	1209
323.15 K	–	1758	1715	1662.7	–	1581.1	1519	1431.9	1337.2	1201.9

CC(O)C(=O)[O-].[NH3+]CCO (stereo not given) + O
speed of sound [m/s]
Details	x1 = 0.0088	x1 = 0.0135	x2 = 0.3197	x2 = 0.5253	x2 = 0.6892	x2 = 0.9027	x2 = 0.9293	x2 = 0.949	x2 = 0.9707
288.15 K	1513.4	–	–	1897.5	–	1778.8	1727.7	1676.5	1602.1
290.65 K	1520.5	1541.4	–	1891.7	1887.8	–	1728.5	1678.8	1606.7
293.15 K	1527.1	1547.4	1882.8	1886	1882.8	1776.9	1729	1680.8	–
295.65 K	1533.2	1553	1876.5	1880.3	1877.8	–	1729.3	1682.6	1614.6
298.15 K	1539	1558.2	1870.4	–	1872.8	1774.5	1729.4	1684.1	1618.1
300.65 K	1544.3	–	1864.4	1869.1	–	–	1729.3	–	1621.3
303.15 K	1549.2	1567.4	1858.5	1863.5	1862.7	–	1729	–	1624.1
305.65 K	1553.7	–	1852.6	1858	1857.7	–	1728.6	1687.2	1626.6
308.15 K	1557.8	1575.2	–	1852.5	1852.6	1767.7	1727.9	1687.7	1628.8
310.65 K	1561.5	–	1841.1	–	1847.5	–	1727	1688	1630.8
313.15 K	1565	–	1835.4	–	1842.3	1763.4	1726	1688.1	1632.4
315.65 K	1568	1584.1	1829.7	1835.9	–	1761.1	1724.7	1687.9	–
318.15 K	1570.7	1586.5	1824	–	1831.9	1758.6	–	1687.5	–
320.65 K	–	1588.5	1818.3	1824.8	1826.7	1756	–	–	1635.6
323.15 K	1575.1	1590.1	1812.7	–	–	1753.2	1719.9	1686.1	–
